Measured values as given in patent publication US20150148415A1, “DERIVATIZED DENDRIMER WITH LOW CITOTOXICITY FOR IN VIVO, EX VIVO, IN VITRO OR IN SITU CHELATION OF HEAVY METALS OR ACTINIDES” (priority 2013, published 2015).

System: C57BL/6 mice
Experiment: In vivo acute toxicity assay, substance given alone (serum biochemistry, kidney histology)
Protocol: Animals. A total of 48 male C57BL/6 mice weighing 25-30 g purchased from the Instituto de Salud Pública (ISP), were used. Animal housing and experiment protocols were approved by the University of Talca in adherence to Conicyt experimental animal administrative regulations. All groups were maintained at a constant temperature (22±1° C.) on a 12-h light/12-h dark cycle (lights-on at 08:00 a.m.) and had free access to food and water.
Animal experimental design. […] Animals were euthanized 48 h later and blood samples were collected from the heart for the assessment of serum urea, creatinine, Lactate Deshidrogenase (LDH), Uric Acid and Calcium
Examination of nephrotoxicity. Mice were anaesthetized with sodium pentobarbitone and blood samples were collected from the heart and the kidneys were removed. Serum levels of urea, creatinine, LDH, Uric Acid and Calcium were determined using commercially available kits according to the protocols provided by Valtek (Valtek Diagnostic, Nuñoa, Chile). Left kidneys were fixed in 10% neutral buffered formaldehyde, embedded in paraffin wax and automatically processed. Sections (3 μm in thickness) of the embedded tissue were stained with hematoxylin-eosin for observation under light microscope.
Statistical analysis. The in vitro data were obtained from at least three independent experiments with three replicates, and all data are expressed as mean±SD. Experimental groups were compared using a one-way analysis of variance (ANOVA) followed by Scheffé's test when the data were normally distributed and by the Kruskal-Wallis test when they were not normally distributed. p-Values <0.05 were considered significant. Statistical tests were performed using GraphPad Prism 5 software, version 5.0 for Mac OS X.

[1] = substance alone ip (UO2 5 mg/kg of uranium; G4-Lys-Fmoc-Cbz 16 mg/kg; G5-Cou 40 mg/kg; EDTA 75 mg/kg), serum 48 h

## CC(=O)O.CC(=O)O.O.O.[O]=[U]=[O] [UO2^−, UO2(CH3COO)2.2H2O]
UO2 alone, 5 mg/kg of uranium ip, serum 48 h
  concentration of creatinine: 1.7±0.5
[1]
  Calcium: 8.8 ± 0.57 mg/dL
  Urea: 226.3 ± 39.4 mg/dL
  Uric Acid: 2.5 ± 0.39 mg/dL
Substance alone ip, 48 h
  kidney histology (hematoxylin-eosin): irreversible damage with necrosis
Substance alone ip, serum 48 h
  LDH (wide spectre toxicity indicator): induced a significant increase of the enzyme
